In test [1] the target is T1, RBP4 (Homo sapiens, UniProt P02753). Put plainly: SPA assay measuring displacement of 3H-retinol from purified human RBP4. The class given is binding. Particulars: for IC50: binding to human RBP4, 3H-retinol at 10 nM as radioligand; for ability to function as RBP4 ligands (competition binding): displacement of radioactive retinol from purified human RBP4. On the procedure: 3H-retinol at 10 nM was used as a radioligand. […] Contacting residues are labeled and illustrated in stick format (MOE, Chemical Computing Group, Inc., Montreal, CA).
The affinity of palmitic acid, oleic acid, linoleic acid, and docosahexaenoic acid for RBP4 was tested using a SPA assay that measures displacement of radioactive retinol from purified human RBP4 (FIG. 21A).

The target of test [2] is T1, RBP4. Particulars: Berni 1992; cited from earlier work.
Test [3] has as its system ob/ob mice. Particulars: ob/ob mice fed a high-fat diet, Koh 2012; cited from earlier work.
Test [4] has as its target RBP4 (Rattus norvegicus, UniProt P04916). To be noted: Adams 1995; cited from earlier work.
Test [5] concerns the target RBP4-TTR interaction (Homo sapiens, UniProt P02753). Particulars: Berni 1992, Schaffer 1993; cited from earlier work.

The values below come from US12440486B2, “RBP4 antagonists for treatment and prevention of non-alcoholic fatty liver disease and gout” (The Trustees of Columbia University in the City of New York, priority 2018, dated 2025).

Each structure is given as a SMILES string.

Turning to `CCCCCCCCCCCCCCCC(=O)O` [palmitic acid], in test [1], the IC50 (commonly the midpoint of a concentration-inhibition curve) stood at 22.6 µM and the “ability to function as RBP4 ligands (competition binding)” value (“ability to function as RBP4 ligands” for short) was “weak RBP4 ligands”.

With `CCCCCCCC/C=C\CCCCCCCC(=O)O` [oleic acid], in test [1], the 50% inhibitory concentration (IC50) is 33 µM and the “ability to function as RBP4 ligands” value was “weak RBP4 ligands”.

In test [1], `CC/C=C\C/C=C\C/C=C\C/C=C\C/C=C\C/C=C\CCC(=O)O` [Docosahexanoic acid (DHA), docosahexaenoic acid] gave a concentration for half-maximal inhibition (IC50) of 49.9 µM.

On to `CC1=C(/C=C/C(C)=C/C=C/C(C)=C/C(=O)Nc2ccc(O)cc2)C(C)(C)CCC1` [fenretinide, N-(4-hydroxy-phenyl)retinamide], for which the “binding to RBP4” value in test [2] is “bind to RBP4”. In addition, the “weight gain, insulin resistance and fatty liver” value in test [3] is “decreases”. Further, the “serum RBP4 and retinol” value in test [4] was “reduce serum RBP4 and retinol”. Also, in test [5], the RBP4-TTR interaction result was “disrupt the RBP4-TTR interaction”.

For the compound `CCCCC/C=C\C/C=C\CCCCCCCC(=O)O` [linoleic acid], in test [1], the IC50 worked out at 17.3 µM and the “ability to function as RBP4 ligands” value was “weak RBP4 ligands”.
